Where no end group is shown, it is not given here.
Columns and labels:
[1] = test system: IEC-6 cells; test: in vitro IEC-6 wounding/cell migration assay; format: cell-based; conditions: for relative activity (wound repair, IEC-6 cells across the wound border): 0.1-1.0 mg/ml dimer, 19 hours, serum-deprived media with or without hCGP 2 mg/ml
Description: Biological activity of recombinant trefoil peptide fragments was measured using an in vitro wound/migration assay as described by Dignass et al. (J. Clin. Invest. 94:376-383 (1994)). Briefly, primary intestinal epithelial, IEC-6 cells (at passage 17) were grown in sterile Dulbecco's Modified Eagle Medium (DMEM) supplemented with 5% FCS (v/v), 5 μg/μl insulin, and 10 mM penicillin/streptomycin/L-glutamine (PSG). Cells were grown to confluence in a humidified chamber at 37° C. and 5% CO2.
Prior to performing biopotency assays, the media was removed, washed 2× with 0.1% FCS/DMEM and serum-starved overnight in 0.1% FCS/DMEM at 37° C. and 5% CO2. Two simulated wounds per well were made by scoring the cells with a razor blade. The cells were then washed once with 0.1%FCS/DMEM. Samples of hITF15-73 and its fragments and isoforms were produced in Pichia pastoris and purified as described above. The TDCP mixture was then added to separate plates at a concentration of 100 μg per milliliter of 0.1% FCS/DMEM per fragment. A positive control using the known mitogen, transforming growth factor-β (TGF-β), was included at 20 ng/mL media and a negative control of just 0.1% FCS/DMEM were incorporated for later analysis. Cells were incubated for 24 hours at 37° C. At 24 hours post incubation, cells were washed with ice-cold PBS and fixed in cold MeOH. Each plate was then assayed for motility by counting the number of cells crossing the wound edge.
Biological activity was tested using the in vitro IEC-6 wounding/cell migration assay describe above with the following modifications. IEC-6 cells were cultured to confluence in 24-well multiwell plates and were wounded once with a pipette to yield a 4-5 mm×1 cm wound in each well. Cells were washed and maintained in serum-deprived media, with or without human colonic glycoprotein (hCGP; 2 mg/ml), in the presence of 0.1-1.0 mg/ml of one of the three recombinant hITF dimers identified above for 19 hours. Bovine serum albumin (0.1-1.0 mg/ml) was added instead of an hITF dimer. Wound repair was determined by counting the number of IEC-6 cells across the wound border using a 100× photomicrograph (inverted Nikon Diaphor TMS, Nikon N6006 camera).

[2] = isoelectric point (pI) of ITF fragments; format: physicochemical
Description: We have observed that production of trefoil peptides in Pichia pastoris leads to post-translational events which include proteolytic cleavage and dipeptide addition. […] Our studies have shown that longer fermentation times results in increased hITF21-72 yields. We also observed that the optimal yield of the ITF21-72 and ITF21-73 occurs at a pH of ˜5; whereas the optimal yield of the […] and […] occurs at pH 6.0-6.5. As the pI of ITF15-73 and ITF21-72 is 5.1 and 6.9 respectively, separation of the two products can be achieved by ion-exchange chromatography.

[3] = stated as well known; cited from earlier work

Row | Molecule | relative activity (wound repair, IEC-6 cells across the wound border) [1] | other results
1 | EA-hITF15-73 homodimer: dimer of EA-hITF15-73, 13547 Da (EAEEYVGLSANQCAVPAKDRVDCGYPHVTPKECNNRGCCFDSRIPGVPWCFKPLQEAECTF; also: homodimer; UniProt Q07654 22-80, looked up, fragment) | 85.3% | –
2 | hITF15-73 homodimer: recombinant hITF15-73 dimer, 13146 Da (EEYVGLSANQCAVPAKDRVDCGYPHVTPKECNNRGCCFDSRIPGVPWCFKPLQEAECTF; cysteine pairing not given here; also: homodimer; UniProt Q07654 22-80, looked up, fragment) | 100% | –
3 | hITF15-73/EA-hITF15-73 heterodimer: dimer of hITF15-73 and EA-hITF15-73, 13347 Da (EEYVGLSANQCAVPAKDRVDCGYPHVTPKECNNRGCCFDSRIPGVPWCFKPLQEAECTF; cysteine pairing not given here; also: heterodimer of hITF15-73 and EA-hITF15-73, one chain has N-terminal Glu-Ala extension; UniProt Q07654 22-80, looked up, fragment) | 95.6% | –
4 | hITF15-73: recombinant trefoil peptide fragment, amino acid residues 15-73 of human intestinal trefoil factor, produced in Pichia pastoris (EEYVGLSANQCAVPAKDRVDCGYPHVTPKECNNRGCCFDSRIPGVPWCFKPLQEAECTF; UniProt Q07654 22-80, looked up, fragment) | – | increase in IEC-6 cells migrating over the wound edge, compared to BSA control ([1]; 1 mg/ml, 19 hour incubation, versus 1 mg/ml BSA (FIG. 12)): ~3 fold; pI [2]: 5.1
5 | hITF: human intestinal trefoil factor (hITF; also known as TFF3) (protein, listed as Homo sapiens) MLGLVLALLSSSSAEEYVGLSANQCAVPAKDRVDCGYPHVTPKECNNRGCCFDSRIPGVPWCFKPLQEAECTF | – | stability at stomach pH [3]: stable

— patent US20040171544A1, “Trefoil domain-containing polypeptides and uses thereof” (priority 2001, published 2004)
